Structures can show the parent of a compound that is named as a salt.
Assays:
[1] = biological target: T1, human vasopressin V1a receptor (Homo sapiens, UniProt P37288); assay: Human vasopressin V1a receptor binding assay; conditions: 1321N1 cell membranes, [3H]vasopressin; read-out: Ki (nM) on hV1a cell line
Procedure, shortened: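 Ki values come from IC50 via Cheng-Prusoff (KD from prior Scatchard), averaged over at least two independent runs. Human V1a membranes were incubated with radioligand 60 minutes at 27° C., bound ligand collected by filtration; (Arg^8)-vasopressin at 1.2×10^−6 M defined non-specific binding.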

[2] = biological target: T1, human vasopressin V1a receptor; assay: Functional assay on human vasopressin V1a receptor expressing cell line (intracellular Ca2+ fluorescence); type: cell-based; conditions: 1321N1 cells, (Arg8)-vasopressin at EC80; read-out: IC50 (nM) on hV1a cell line

T1 sequence (P37288 whole entry): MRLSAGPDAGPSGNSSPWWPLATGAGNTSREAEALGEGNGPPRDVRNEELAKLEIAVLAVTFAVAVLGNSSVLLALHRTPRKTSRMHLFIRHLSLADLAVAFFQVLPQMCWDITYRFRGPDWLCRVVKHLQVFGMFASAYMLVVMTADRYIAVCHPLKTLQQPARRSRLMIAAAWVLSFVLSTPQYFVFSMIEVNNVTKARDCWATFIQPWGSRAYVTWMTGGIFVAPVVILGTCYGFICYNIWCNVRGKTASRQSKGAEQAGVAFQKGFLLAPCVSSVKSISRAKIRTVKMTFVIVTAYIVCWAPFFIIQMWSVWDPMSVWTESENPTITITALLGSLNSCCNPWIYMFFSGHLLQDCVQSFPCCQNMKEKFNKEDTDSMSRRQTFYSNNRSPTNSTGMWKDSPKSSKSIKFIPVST

Compound	Ki [1]	IC50 [2]
CC(C)(C)OC(=O)NC1Cc2cc(Cl)ccc2-n2c(nnc2N2CCN(c3ncccc3Cl)CC2)C1 (stereo not drawn) [Example 139, Tert-butyl {8-chloro-1-[4-(3-chloropyridin-2-yl)piperazin-1-yl]-5,6-dihydro-4H-[1,2,4]triazolo[4,3-a][1]benzazepin-5-yl}carbamate]	9.3 nM	130 nM
COC1Cc2cc(Cl)ccc2-n2c(nnc2C2CCN(C(=O)OC(C)(C)C)CC2)C1 (stereo not drawn) [Example 140, Tert-butyl 4-(8-chloro-5-methoxy-5,6-dihydro-4H-[1,2,4]triazolo[4,3-a][1]benzazepin-1-yl)piperidine-1-carboxylate]	2.4 nM	57 nM
CC(C)(C)OC(=O)NC1Cc2ccccc2-n2c(nnc2[C@H]2CC[C@H](Oc3ccccn3)CC2)C1 (stereo partly drawn) [Example 142, Tert-butyl {1-[trans-4-(pyridin-2-yloxy)cyclohexyl]-5,6-dihydro-4H-[1,2,4]triazolo[4,3-a][1]benzazepin-5-yl}carbamate]	14.3 nM	225 nM
CC(C)(C)OC(=O)NC1Cc2cc(F)ccc2-n2c(nnc2[C@H]2CC[C@H](Oc3ccccn3)CC2)C1 (stereo partly drawn) [Example 143, Tert-butyl {8-fluoro-1-[trans-4-(pyridin-2-yloxy)cyclohexyl]-5,6-dihydro-4H-[1,2,4]triazolo[4,3-a][1]benzazepin-5-yl}carbamate]	5 nM	156 nM
NC1Cc2ccccc2-n2c(nnc2[C@H]2CC[C@H](Oc3ccccn3)CC2)C1 (stereo partly drawn) [Example 144, 1-[trans-4-(pyridin-2-yloxy)cyclohexyl]-5,6-dihydro-4H-[1,2,4]triazolo[4,3-a][1]benzazepin-5-amine]	34 nM	168 nM
NC1Cc2cc(F)ccc2-n2c(nnc2[C@H]2CC[C@H](Oc3ccccn3)CC2)C1 (stereo partly drawn) [Example 145, 8-fluoro-1-[trans-4-(pyridin-2-yloxy)cyclohexyl]-5,6-dihydro-4H-[1,2,4]triazolo[4,3-a][1]benzazepin-5-amine]	12.7 nM	47 nM
CC(C)NC1Cc2cc(F)ccc2-n2c(nnc2[C@H]2CC[C@H](Oc3ccccn3)CC2)C1 (stereo partly drawn) [Example 146, 8-fluoro-N-(propan-2-yl)-1-[trans-4-(pyridin-2-yloxy)cyclohexyl]-5,6-dihydro-4H-[1,2,4]triazolo[4,3-a][1]benzazepin-5-amine]	3.2 nM	78 nM
CC(C)NC1Cc2ccccc2-n2c(nnc2[C@H]2CC[C@H](Oc3ccccn3)CC2)C1 (stereo partly drawn) [Example 150, N-(propan-2-yl)-1-[trans-4-(pyridin-2-yloxy)cyclohexyl]-5,6-dihydro-4H-[1,2,4]triazolo[4,3-a][1]benzazepin-5-amine]	5 nM	94 nM
O=C(N[C@H]1Cc2cc(Cl)ccc2-n2c(nnc2[C@H]2CC[C@H](Oc3ccccn3)CC2)C1)C1CCOCC1 [Example 151]	30 nM	209 nM
CCC(C)C(=O)N[C@H]1Cc2cc(Cl)ccc2-n2c(nnc2[C@H]2CC[C@H](Oc3ccccn3)CC2)C1 (stereo partly drawn) [Example 152]	67 nM	737 nM
CN(C)CCC(=O)N[C@H]1Cc2cc(Cl)ccc2-n2c(nnc2[C@H]2CC[C@H](Oc3ccccn3)CC2)C1 [Example 153, N-{(5S)-8-chloro-1-[trans-4-(pyridin-2-yloxy)cyclohexyl]-5,6-dihydro-4H-[1,2,4]triazolo[4,3-a][1]benzazepin-5-yl}-N^3,N^3-dimethyl-β-alaninamide]	20.5 nM	307 nM
CCC(C)(C)C(=O)N[C@H]1Cc2cc(Cl)ccc2-n2c(nnc2[C@H]2CC[C@H](Oc3ccccn3)CC2)C1 [Example 158, N-{(5S)-8-chloro-1-[trans-4-(pyridin-2-yloxy)cyclohexyl]-5,6-dihydro-4H-[1,2,4]triazolo[4,3-a][1]benzazepin-5-yl}-2,2-dimethylbutanamide]	62 nM	1510 nM
CC(C)(O)C(=O)N[C@H]1Cc2cc(Cl)ccc2-n2c(nnc2[C@H]2CC[C@H](Oc3ccccn3)CC2)C1 [Example 159, N-{(5S)-8-chloro-1-[trans-4-(pyridin-2-yloxy)cyclohexyl]-5,6-dihydro-4H-[1,2,4]triazolo[4,3-a][1]benzazepin-5-yl}-2-hydroxy-2-methylpropanamide]	8 nM	216 nM
CC(C)CN[C@H]1Cc2cc(Cl)ccc2-n2c(nnc2[C@H]2CC[C@H](Oc3ccccn3)CC2)C1 [Example 161, (5S)-8-chloro-N-(2-methylpropyl-1-[trans-4-pyridin-2-yloxy)cyclohexyl]-5,6-dihydro-4H-[1,2,4]triazolo[4,3-a][1]benzazepin-5-amine]	1.8 nM	34 nM
COC1Cc2cc(Cl)ccc2-n2c(nnc2[C@H]2CC[C@H](C(=O)N3CCN(C)CC3)CC2)C1 (stereo partly drawn) [Example 166, [Trans-4-(8-chloro-5-methoxy-5,6-dihydro-4H-[1,2,4]triazolo[4,3-a][1]benzazepin-1-yl)cyclohexyl](4-methylpiperazin-1-yl)methanone]	6.2 nM	169 nM

Molecules with a lower Ki [1], results first:

Ki [1]	IC50 [2]	Compound
1.5 nM	21 nM	CC(C)(C)CN[C@H]1Cc2cc(Cl)ccc2-n2c(nnc2[C@H]2CC[C@H](Oc3ccccn3)CC2)C1 [Example 165, (5S)-8-chloro-N-(2,2-dimethylpropyl)-1-[trans-4-(pyridin-2-yloxy)cyclohexyl]-5,6-dihydro-4H-[1,2,4]triazolo[4,3-a][1]benzazepin-5-amine]
1.2 nM	26 nM	CN(C)C1Cc2ccccc2-n2c(nnc2[C@H]2CC[C@H](Oc3ccccn3)CC2)C1 (stereo partly drawn) [Example 148]
1 nM	9.4 nM	CN(C)C1Cc2cc(F)ccc2-n2c(nnc2[C@H]2CC[C@H](Oc3ccccn3)CC2)C1 (stereo partly drawn) [Example 147, 8-fluoro-N,N-dimethyl-1-[trans-4-(pyridin-2-yloxy)cyclohexyl]-5,6-dihydro-4H-[1,2,4]triazolo[4,3-a][1]benzazepin-5-amine]
1 nM	6.2 nM	CN(C)C1Cc2cc(Cl)ccc2-n2c(nnc2N2CCC3(CC2)OCc2ccccc23)C1 (stereo not drawn) [Example 163]
0.8 nM	15 nM	Fc1ccc2c(c1)CC1(Cc3nnc([C@H]4CC[C@H](C(F)(F)F)CC4)n3-2)OCCO1 [Example 149, 8′-fluoro-1′-[trans-4-(trifluoromethyl)cyclohexyl]-4′H,6′H-spiro[1,3-dioxolane-2,5′-[1,2,4]triazolo[4,3-a][1]benzazepine]]
0.8 nM	21 nM	Clc1ccc2c(c1)C[C@H](NC1CCCC1)Cc1nnc([C@H]3CC[C@H](Oc4ccccn4)CC3)n1-2 [Example 154, (5S)-8-chloro-N-cyclopentyl-1-[trans-4-(pyridin-2-yloxy)cyclohexyl]-5,6-dihydro-4H-[1,2,4]triazolo[4,3-a][1]benzazepin-5-amine]
0.7 nM	8.9 nM	CC(C)[C@@H](N)C(=O)N[C@@H]1Cc2cc(Cl)ccc2-n2c(nnc2[C@H]2CC[C@H](Oc3ccccn3)CC2)C1 [Example 141, N-{(5R)-8-chloro-1-[trans-4-(pyridin-2-yloxy)cyclohexyl]-5,6-dihydro-4H-[1,2,4]triazolo[4,3-a][1]benzazepin-5-yl}-D-valinamide]
0.5 nM	9.5 nM	O=C1Cc2cc(Cl)ccc2-n2c(nnc2N2CCC3(CC2)OCc2ccccc23)C1 [Example 156, 8-chloro-1-(1′H,3H-spiro[2-benzofuran-1,4′-piperidin]-1′-yl)-4H-[1,2,4]triazolo[4,3-a][1]benzazepin-5(6H)-one]
0.5 nM	2.9 nM	Clc1ccc2c(c1)CC1(Cc3nnc([C@H]4CC[C@H](N5CCOCC5)CC4)n3-2)OCCO1 [Example 162, 8′-chloro-1′-[trans-4-(morpholin-4-yl)cyclohexyl]-4′H,6′H-spiro[1,3-dioxolane-2,5′-[1,2,4]triazolo[4,3-a][1]benzazepine]hydrochloride]
0.4 nM	4.9 nM	CCN(C)[C@H]1Cc2cc(Cl)ccc2-n2c(nnc2[C@H]2CC[C@H](Oc3ccccn3)CC2)C1 [Example 160]
0.4 nM	2.6 nM	Clc1ccc2c(c1)C[C@@H](N1CCOCC1)Cc1nnc([C@H]3CC[C@H](Oc4ccccn4)CC3)n1-2 [Example 167, (5R)-8-chloro-5-(morpholin-4-yl)-1-[trans-4-(pyridin-2-yloxy)cyclohexyl]-5,6-dihydro-4H-[1,2,4]triazolo[4,3-a][1]benzazepine]
0.4 nM	0.8 nM	CC(=O)N[C@@H]1Cc2cc(Cl)ccc2-n2c(nnc2[C@H]2CC[C@H](Oc3ccccn3)CC2)C1 [Example 168, N-{(5R)-8-chloro-1-[trans-4-(pyridin-2-yloxy)cyclohexyl]-5,6-dihydro-4H-[1,2,4]triazolo[4,3-a][1]benzazepin-5-yl}acetamide]
0.3 nM	0.9 nM	Clc1ccc2c(c1)CC1(Cc3nnc(N4CCN(c5ncccc5Cl)CC4)n3-2)OCCO1 [Example 164, 8′-chloro-1-[4-(3-chloropyridin-2-yl)piperazin-1-yl]-4′H,6′H-spiro[1,3-dioxolane-2,5′-[1,2,4]triazolo[4,3-a][1]benzazepine]]
0.2 nM	5 nM	CC(C)N(C)C1Cc2cc(Cl)ccc2-n2c(nnc2[C@H]2CC[C@H](Oc3ccccn3)CC2)C1 (stereo partly drawn) [Example 138, 8-chloro-N-methyl-N-(propan-2-yl)-1-[trans-4-(pyridin-2-yloxy)cyclohexyl]-5,6-dihydro-4H-[1,2,4]triazolo[4,3-a][1]benzazepin-5-amine]
0.04 nM	0.7 nM	Clc1ccc2c(c1)CC1(Cc3nnc(N4CCC5(CC4)OCc4ccccc45)n3-2)OCCO1 [Example 155, 8′-chloro-1′-(1′H,3H-spiro[2-benzofuran-1,4′-piperidin]-1′-yl)-4′H,6′H-spiro[1,3-dioxolane-2,5′-[1,2,4]triazolo[4,3-a][1]benzazepine]]

— patent publication US11298363B2, “Triazolobenzazepines as vasopressin V1a receptor antagonists” (RICHTER GEDEON NYRT., priority 2017, dated 2022)
